# Patent publication US6730694B1, “sPLA2 inhibitors” (Eli Lilly and Company, priority 2003, dated 2004)
# Assays:
# [1] = molecular target: T1, recombinant human secreted phospholipase A2 (Homo sapiens, UniProt P14555); experiment: Chromogenic assay of recombinant human secreted phospholipase A2 inhibition; assay type: biochemical; conditions: diheptanoyl thio-PC substrate, pH 7.5, 40° C., 30 minutes, absorbance at 405 nanometers; read-out: Inhibition of human secreted PLA2 IC50 ± mean deviation (3-4 tests)
# T1 sequence (P14555 21-144): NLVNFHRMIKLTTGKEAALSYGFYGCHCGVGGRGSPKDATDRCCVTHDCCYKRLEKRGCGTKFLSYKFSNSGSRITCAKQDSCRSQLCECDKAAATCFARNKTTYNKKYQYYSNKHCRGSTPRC
# Source text: The following chromogenic assay procedure was used to identify and evaluate inhibitors of recombinant human secreted phospholipase A2. The assay described herein has been adapted for high volume screening using 96 well microtiter plates. A general description of this assay method is found in the article, “Analysis of Human Synovial Fluid Phospholipase A2 on Short Chain Phosphatidylcholine-Mixed Micelles: Development of a Spectrophotometric Assay Suitable for a Microtiterplate Reader”, by Laure J. Reynolds, Lori L. Hughes, and Edward A Dennis, Analytical Biochemistry, 204, pp. 190-197, 1992 (the disclosure of which is incorporated herein by reference):
# Adjust pH to 4.5 with acetic acid […]
# A measured volume of racemic dipheptanoyl thio PC supplied in chloroform at a concentration of 100 mg/ml is taken to dryness and redissolved in 10 millimolar […]
# 5. Read absorbance of wells at 405 nanometers with an automatic plate reader.
# All compounds were tested in triplicate. […] Compounds initially found to be active were reassayed to confirm their activity and, if sufficiently active, IC50 values were determined. […] In all cases, % inhibition measured at 405 nanometers generated by enzyme reactions containing inhibitors relative to the uninhibited control reactions was determined. […] IC50 values were determined by plotting log concentration versus inhibition values in the range from 10-90% inhibition.
structure (smiles),measurement,setting,value
"CCc1c(C(=O)C(N)=O)c2ccsc2n1Cc1ccccc1 [Example 1, 2-(6-Benzyl-5-ethyl-6H-thieno[2,3-b]pyrrol-4-yl)-2-oxoacetamide]",IC50,[1],5.5 µM
same,melting point,,169 to 172 °C
